Reference: patent publication US20130053381A1, “2,4-DIOXO-1,4-DIHYDRO-2H-QUINAZOLIN-3-YL-SULFONAMIDE DERIVATIVES” (NOVARTIS AG, priority 2010, published 2013)

System: OF1 mice
Experiment: Maximal electroshock test (MES Test)
Format: in vivo
Conditions: Mus musculus, po; 50 mg/kg, p.o., pre-treatment time −1 h; read-out: %-Protection
Experimental: Compounds of the invention were tested in OF1 mice using the maximal electroshock test (MES Test) described in detail by Schmutz et al., Naunyn-Schmiedeberg's Arch Pharmacol 1990, 342, 61-66. Briefly, generalized tonic-clonic convulsions of the hind extremities were induced by passing electrical current through temporal electrodes (50 Hz, 18 mA, 0.2s). […] 30 mg/kg carbamazepine was used as a positive control; mice were classified as protected by a compound If the duration of the seizure lasted only 3 second or less. Five mice were used for each treatment condition and the percentage of protected mice was used as readout (i.e. a compound could give 0%, 20%, 40%, 60%, 80% or 100% protection). Usually, compounds of the invention or their parents were given at a dose of 50 mg/kg, p.o., 1 hour prior to induction of convulsions (i.e. “pre-treatment time −1 h”).
ED50 values (ED: effective dose) were calculated using GraphPad Prism, v4.02. after shock administration, mouse blood was collected for determination of compounds' blood exposure.

Going from `CC(=O)n1c(=O)n(N(C(=O)OCc2ccccc2)S(C)(=O)=O)c(=O)c2cc(-c3ccnn3C)c(C(C)C)cc21` [Example 3.27, [1-Acetyl-7-isopropyl-6-(2-methyl-2H-pyrazol-3-yl)-2,4-dioxo-1,4-dihydro-2H-quinazolin-3-yl]-methanesulfonyl-carbamic acid benzyl ester] to `CCOC(=O)N(n1c(=O)c2cc(-c3ccnn3C)c(C(C)C)cc2n(C(=O)OCC)c1=O)S(C)(=O)=O` [Example 3.33], the responders at 50 mg/kg falls from 100% to 80%.

`COCCOCCOCC(=O)N(n1c(=O)[nH]c2cc(C(C)C)c(-c3ccnn3C)cc2c1=O)S(C)(=O)=O` [Example 3.28, N-[7-Isopropyl-6-(2-methyl-2H-pyrazol-3-yl)-2,4-dioxo-1,4-dihydro-2H-quinazolin-3-yl]-N-[2-[2-(2-methoxy-ethoxy)-ethoxy]-acetyl]-methanesulfonamide] and `CC(C)c1cc2[nH]c(=O)n(N(C(=O)COCc3ccccc3)S(C)(=O)=O)c(=O)c2cc1-c1ccnn1C` [Example 3.29, N-(2-Benzyloxy-acetyl)-N-[7-isopropyl-6-(2-methyl-2H-pyrazol-3-yl)-2,4-dioxo-1,4-dihydro-2H-quinazolin-3-yl]-methanesulfonamide] are the same in responders at 50 mg/kg: 100% for the first, 100% for the second.

`CC(C)c1cc2[nH]c(=O)n(N(C(=O)CCCOCc3ccccc3)S(C)(=O)=O)c(=O)c2cc1-c1ccnn1C` [Example 3.30, N-(4-Benzyloxy-butyryl)-N-[7-isopropyl-6-(2-methyl-2H-pyrazol-3-yl)-2,4-dioxo-1,4-dihydro-2H-quinazolin-3-yl]-methanesulfonamide] and `CC(C)c1cc2[nH]c(=O)n(N(C(=O)CCCN3CCOCC3)S(C)(=O)=O)c(=O)c2cc1-c1ccnn1C` [Example 3.37, N-[7-Isopropyl-6-(2-methyl-2H-pyrazol-3-yl)-2,4-dioxo-1,4-dihydro-2H-quinazolin-3-yl]-N-(4-morpholin-4-yl-butyryl)-methanesulfonamide] are the same in responders at 50 mg/kg: 100% for the first, 100% for the second.

Compared with `CC(C)c1cc2[nH]c(=O)n(N(C(=O)CN3CCOCC3)S(C)(=O)=O)c(=O)c2cc1-c1ccnn1C` [Example 3.31, N-[7-Isopropyl-6-(2-methyl-2H-pyrazol-3-yl)-2,4-dioxo-1,4-dihydro-2H-quinazolin-3-yl]-N-(2-morpholin-4-yl-acetyl)-methanesulfonamide], `CC(C)c1cc2[nH]c(=O)n(N(C(=O)CCN3CCOCC3)S(C)(=O)=O)c(=O)c2cc1-c1ccnn1C` [Example 3.38, N-[7-Isopropyl-6-(2-methyl-2H-pyrazol-3-yl)-2,4-dioxo-1,4-dihydro-2H-quinazolin-3-yl]-N-(3-morpholin-4-yl-propionyl)-methanesulfonamide] is lower in responders at 50 mg/kg: 100% for the first, 80% for the second.

First: COC(=O)N(n1c(=O)c2cc(-c3ccnn3C)c(C(C)C)cc2n(C(=O)OC)c1=O)S(C)(=O)=O [Example 3.32, 7-Isopropyl-3-(methoxycarbonyl-methanesulfonyl-amino)-6-(2-methyl-2H-pyrazol-3-yl)-2,4-dioxo-3,4-dihydro-2H-quinazoline-1-carboxylic acid methyl ester]
Second: COC(=O)n1c(=O)n(N(C(C)=O)S(C)(=O)=O)c(=O)c2cc(-c3ccnn3C)c(C(C)C)cc21 [Example 3.36, 3-(Acetyl-methanesulfonyl-amino)-7-isopropyl-6-(2-methyl-2H-pyrazol-3-yl)-2,4-dioxo-3,4-dihydro-2H-quinazoline-1-carboxylic acid methyl ester]
The responders at 50 mg/kg of the first is lower: 80% for the first, 100% for the second.

`CCCOC(=O)N(n1c(=O)c2cc(-c3ccnn3C)c(C(C)C)cc2n(C(=O)OCCC)c1=O)S(C)(=O)=O` [Example 3.34, 7-Isopropyl-3-(methanesulfonyl-propoxycarbonyl-amino)-6-(2-methyl-2H-pyrazol-3-yl)-2,4-dioxo-3,4-dihydro-2H-quinazoline-1-carboxylic acid propyl ester] and `CCCCOC(=O)N(n1c(=O)c2cc(-c3ccnn3C)c(C(C)C)cc2n(C(=O)OCCCC)c1=O)S(C)(=O)=O` [Example 3.35, 3-(Butoxycarbonyl-methanesulfonyl-amino)-7-isopropyl-6-(2-methyl-2H-pyrazol-3-yl)-2,4-dioxo-3,4-dihydro-2H-quinazoline-1-carboxylic acid butyl ester] are the same in responders at 50 mg/kg: 80% for the first, 80% for the second.

Going from `CCOC(=O)CCC(=O)N(n1c(=O)[nH]c2cc(C(F)(F)F)c(-n3ccnc3)cc2c1=O)S(C)(=O)=O` [Example 4.01, 4-[(6-Imidazol-1-yl-2,4-dioxo-7-trifluoromethyl-1,4-dihydro-2H-quinazolin-3-yl)-methanesulfonyl-amino]-4-oxo-butyric acid ethyl ester] to `CCCC(=O)N(n1c(=O)[nH]c2cc(C(F)(F)F)c(-n3ccnc3)cc2c1=O)S(C)(=O)=O` [Example 4.09, N-Butyryl-N-(6-imidazol-1-yl-2,4-dioxo-7-trifluoromethyl-1,4-dihydro-2H-quinazolin-3-yl)-methanesulfonamide], the responders at 50 mg/kg rises from 20% to 40%.

Compared with `CCCCC(=O)N(n1c(=O)[nH]c2cc(C(F)(F)F)c(-n3ccnc3)cc2c1=O)S(C)(=O)=O` [Example 4.02, N-(6-Imidazol-1-yl-2,4-dioxo-7-trifluoromethyl-1,4-dihydro-2H-quinazolin-3-yl)-N-pentanoyl-methanesulfonamide], `CCCCCC(=O)N(n1c(=O)[nH]c2cc(C(F)(F)F)c(-n3ccnc3)cc2c1=O)S(C)(=O)=O` [Example 4.08, N-Hexanoyl-N-(6-imidazol-1-yl-2,4-dioxo-7-trifluoromethyl-1,4-dihydro-2H-quinazolin-3-yl)-methanesulfonamide] is lower in responders at 50 mg/kg: 100% for the first, 20% for the second.

Compared with `CC(=O)N(n1c(=O)[nH]c2cc(C(F)(F)F)c(-n3ccnc3)cc2c1=O)S(C)(=O)=O` [Example 4.03, N-Acetyl-N-(6-imidazol-1-yl-2,4-dioxo-7-trifluoromethyl-1,4-dihydro-2H-quinazolin-3-yl)-methanesulfonamide], `CC(C)C(=O)N(n1c(=O)[nH]c2cc(C(F)(F)F)c(-n3ccnc3)cc2c1=O)S(C)(=O)=O` [Example 4.05, N-(6-Imidazol-1-yl-2,4-dioxo-7-trifluoromethyl-1,4-dihydro-2H-quinazolin-3-yl)-N-isobutyryl-methanesulfonamide] is higher in responders at 50 mg/kg: 40% for the first, 80% for the second.

Going from `CC(C)CC(=O)N(n1c(=O)[nH]c2cc(C(F)(F)F)c(-n3ccnc3)cc2c1=O)S(C)(=O)=O` [Example 4.06, N-(6-Imidazol-1-yl-2,4-dioxo-7-trifluoromethyl-1,4-dihydro-2H-quinazolin-3-yl)-N-(3-methyl-butyryl)-methanesulfonamide] to `CS(=O)(=O)N(C(=O)C1CCCC1)n1c(=O)[nH]c2cc(C(F)(F)F)c(-n3ccnc3)cc2c1=O` [Example 4.07], the responders at 50 mg/kg rises from 20% to 40%.

First: CC(=O)N(n1c(=O)[nH]c2cc(C(F)(F)F)c(-c3ccnn3C(C)C)cc2c1=O)S(C)(=O)=O [Example 5.01, N-Acetyl-N-[6-(2-isopropyl-2H-pyrazol-3-yl)-2,4-dioxo-7-trifluoromethyl-1,4-dihydro-2H-quinazolin-3-yl]-methanesulfonamide]
Second: CCC(=O)N(n1c(=O)[nH]c2cc(C(F)(F)F)c(-c3ccnn3C(C)C)cc2c1=O)S(C)(=O)=O [Example 5.02, N-[6-(2-Isopropyl-2H-pyrazol-3-yl)-2,4-dioxo-7-trifluoromethyl-1,4-dihydro-2H-quinazolin-3-yl]-N-propionyl-methanesulfonamide]
The responders at 50 mg/kg of the first is higher: 60% for the first, 20% for the second.

Going from `CCCC(=O)N(n1c(=O)[nH]c2cc(C(F)(F)F)c(-c3ccnn3C(C)C)cc2c1=O)S(C)(=O)=O` [Example 5.03, N-Butyryl-N-[6-(2-isopropyl-2H-pyrazol-3-yl)-2,4-dioxo-7-trifluoromethyl-1,4-dihydro-2H-quinazolin-3-yl]-methanesulfonamide] to `CCCCCC(=O)N(n1c(=O)[nH]c2cc(C(F)(F)F)c(-c3ccnn3C(C)C)cc2c1=O)S(C)(=O)=O` [Example 5.04, N-Hexanoyl-N-[6-(2-isopropyl-2H-pyrazol-3-yl)-2,4-dioxo-7-trifluoromethyl-1,4-dihydro-2H-quinazolin-3-yl]-methanesulfonamide], the responders at 50 mg/kg falls from 40% to 20%.

`CC(C)C(=O)N(n1c(=O)[nH]c2cc(C(F)(F)F)c(-c3ccnn3C(C)C)cc2c1=O)S(C)(=O)=O` [Example 5.05, N-Isobutyryl-N-[6-(2-isopropyl-2H-pyrazol-3-yl)-2,4-dioxo-7-trifluoromethyl-1,4-dihydro-2H-quinazolin-3-yl]-methanesulfonamide] and `CCOC(=O)N(n1c(=O)[nH]c2cc(C(F)(F)F)c(-c3ccnn3C(C)C)cc2c1=O)S(C)(=O)=O` [Example 5.06, [6-(2-Isopropyl-2H-pyrazol-3-yl)-2,4-dioxo-7-trifluoromethyl-1,4-dihydro-2H-quinazolin-3-yl]-methanesulfonyl-carbamic acid ethyl ester] are the same in responders at 50 mg/kg: 60% for the first, 60% for the second.

Same assay, conditions: Mus musculus, po; 50 mg/kg, p.o., pre-treatment time −2 h (footnote a); read-out: %-Protection

For `CCC(=O)N(n1c(=O)[nH]c2cc(C(F)(F)F)c(-n3ccnc3)cc2c1=O)S(C)(=O)=O` [Example 4.04, N-(6-Imidazol-1-yl-2,4-dioxo-7-trifluoromethyl-1,4-dihydro-2H-quinazolin-3-yl)-N-propionyl-methanesulfonamide], the responders at 50 mg/kg was 40%.

Same assay, conditions: single 50 mg/kg p.o. dose; 30 min after treatment, MES Test

For `CCCCC(=O)N(n1c(=O)[nH]c2cc(C(F)(F)F)c(-n3ccnc3)cc2c1=O)S(C)(=O)=O` [Example 4.02, N-(6-Imidazol-1-yl-2,4-dioxo-7-trifluoromethyl-1,4-dihydro-2H-quinazolin-3-yl)-N-pentanoyl-methanesulfonamide], the “%-seizure protection” value was 100%.
